PMC9146984, “A Novel Proline-Rich Cathelicidin from the Alpaca Vicugna pacos with Potency to Combat Antibiotic-Resistant Bacteria: Mechanism of Action and the Functional Role of the C-Terminal Region” (Membranes, 2022)
≈ marks a conversion by molar mass, not a printed value. Like-named read-outs stand apart in the source and are kept apart here. Where a SMILES comes first, the peptide text is derived from it.

What was measured:
E. coli MDR 1057 = settings: selection by VicBac[1–22], stable after three passages without peptide
Protocol: Resistance induction experiments were performed using the previously described method. Briefly, on day one, the overnight culture of wild-type bacteria was diluted with the 2× MH broth supplemented with 1.8% NaCl to reach a final cell concentration of 10^6 CFU/mL. 50 µL of the obtained bacterial suspension were added to aliquots of 50 µL of the peptide solutions serially diluted with the sterilized 0.1% BSA in 96-well flat-bottom polystyrene microplates. After incubation for 20 ± 2 h at 37 °C and 950 rpm, MICs were determined as described above. For each subsequent daily transfer, 2–4 μL of the inoculum taken from the first well containing a sub-inhibitory drug concentration were diluted with 2 mL of the fresh 2× MH broth supplemented with 1.8% NaCl. […] Bacteria that grew at the highest concentration of AMPs on the final day were passaged a further 3 times on drug-free agar plates before determining the final MIC value.

E. coli BW25113 ΔompF = assay type: cell-based, Escherichia coli; settings: Mueller–Hinton broth, 24 h, 37 °C, median
Protocol: (§1) The reduction of resazurin to resorufin was measured.

E. coli BW25113 ΔmdtM = assay type: cell-based, Escherichia coli; settings: Mueller–Hinton broth, 24 h, 37 °C, median
Protocol: as §1

E. coli BW25113 ΔsbmA = assay type: cell-based, Escherichia coli; settings: Mueller–Hinton broth, 24 h, 37 °C, median
Protocol: as §1

E. coli BW25113 = assay type: cell-based, Escherichia coli; settings: BW25113, 24 h
Protocol: as §1

[1] = tested on: VicBac[1–22]-resistant E. coli MDR 1057 strain; settings: Mueller-Hinton broth supplemented with 0.9% NaCl; strain selected 14 days with VicBac[1-22]; cross-resistance
Protocol: (§2) Bacterial test cultures were grown in the Mueller-Hinton broth (MH; Sigma, St. Louis, MO, USA) at 37 °C to mid-log phase and then diluted with the 2× MH medium supplemented with 1.8% NaCl or without salt so that to reach a final cell concentration of 10^6 CFU/mL. 50 µL of the obtained bacterial suspension were added to aliquots of 50 µL of the peptide solutions serially diluted with sterilized 0.1% bovine serum albumin (BSA) in 96-well flat-bottom polystyrene microplates (Eppendorf #0030730011, Hamburg, Germany). […] To verify MIC values, the respiratory activity of the bacteria was determined. Briefly, 20 µL of 0.1 mg/mL resazurin (a redox indicator; Sigma, St. Louis, MO, USA) was added to the wells after 24 h of incubation, and the plate was incubated for an additional two hours. The reduction of resazurin to resorufin was measured. […] The results were expressed as the median values determined based on at least three independent experiments performed in triplicate.
(§3) Resistance induction experiments were performed using the previously described method. Briefly, on day one, the overnight culture of wild-type bacteria was diluted with the 2× MH broth supplemented with 1.8% NaCl to reach a final cell concentration of 10^6 CFU/mL. 50 µL of the obtained bacterial suspension were added to aliquots of 50 µL of the peptide solutions serially diluted with the sterilized 0.1% BSA in 96-well flat-bottom polystyrene microplates. After incubation for 20 ± 2 h at 37 °C and 950 rpm, MICs were determined as described above. For each subsequent daily transfer, 2–4 μL of the inoculum taken from the first well containing a sub-inhibitory drug concentration were diluted with 2 mL of the fresh 2× MH broth supplemented with 1.8% NaCl. […] 14 repeated passages in the presence of antimicrobial agents were made for each bacterial strain during the experiment. Bacteria that grew at the highest concentration of AMPs on the final day were passaged a further 3 times on drug-free agar plates before determining the final MIC value.

E. coli MDR CI 1057 = settings: Mueller-Hinton broth supplemented with 0.9% NaCl
Protocol: as §2, §3

[2] = tested on: human embryonic kidney cells (HEK293T); test: Cytotoxicity (MTT assay); assay type: cell-based
Protocol: Hemolytic activity of the peptides was tested against the fresh suspension of human red blood cells (hRBC) using the hemoglobin release assay as described previously. Two experiments were performed with the hRBC from blood samples of independent donors. The quantitative data were represented as average means with standard deviations. The colorimetric 3-(4,5-dimethylthiazol-2-yl)-2,5-diphenyltetrazolium bromide (MTT) dye reduction assay was used to determine the cytotoxicity of the peptides against transformed human embryonic kidney cells (HEK293T). 10^4 cells per well in Dulbecco’s modified Eagle’s medium (DMEM/F12) supplemented with 10% fetal bovine serum (FBS; Invitrogen, Waltham, MA, USA) were placed into 96-well plates and then cultured in the CO2-incubator (5% CO2, 37 °C). After the media were removed, the peptides were dissolved in 100 µL of the same medium and added to cell cultures at different final concentrations. 20 h later, 20 μL of MTT (5 mg/mL; Sigma, St. Louis, MO, USA) was added to each well, and the plates were incubated for 4 h at 37 °C. Then, the media were discarded and a 100 µL dimethyl sulfoxide-isopropanol mixture at a ratio of 1:1 (v/v) was added to each well to dissolve the crystallized formazan. The absorbance at 570 nm was measured by a microplate reader AF2200 (Eppendorf, Hamburg, Germany). The optical density in the wells containing cells cultured without the peptides was assumed to represent 100% cell viability. Two independent experiments were performed for each peptide.

[3] = tested on: BW25113ΔsbmA expressing the control protein sfGFP; assay type: cell-based, Escherichia coli; settings: same promoter J23119
Protocol: as §1
(§4) A plasmid vector for the expression of sfGFP under the strong constitutive artificial promoter J23119 [33] was kindly provided by M.N. Baranova (Figure S2A). This plasmid was used for the preparation of the complementation plasmids overexpressing two SbmA variants in the SbmA-deficient E. coli strain. The plasmids were obtained by ligase-independent cloning procedure. Briefly, DNA parts were produced by PCR-amplification of the vector and target sbmA gene from wild-type E. coli MDR 1057 or VicBac[1–22]-resistant strain (Figure S2B). The DNA fragments purified by gel electrophoresis and having 22–23 bp overhangs were mixed with molar ratios of 2:1 (insert: linearized vector) and were subsequently transformed into chemically competent E. coli DH10B cells. Target plasmids were isolated from individual clones and then analyzed by DNA sequencing.

[4] = tested on: BW25113ΔsbmA with plasmid-borne mutant SbmA bearing the tetrapeptide deletion; assay type: cell-based, Escherichia coli; settings: promoter J23119, pUC vector
Protocol: as §1, §4

[5] = tested on: BW25113ΔsbmA with plasmid-borne wild-type SbmA; assay type: cell-based, Escherichia coli; settings: promoter J23119, pUC vector
Protocol: as §1, §4

CC[C@H](C)[C@H](NC(=O)[C@H](CCCNC(=N)N)NC(=O)[C@@H]1CCCN1C(=O)[C@@H]1CCCN1C(=O)[C@@H](NC(=O)[C@H](CCCNC(=N)N)NC(=O)[C@@H]1CCCN1C(=O)[C@H](CCCNC(=N)N)NC(=O)[C@@H]1CCCN1C(=O)[C@@H](NC(=O)[C@H](CCCNC(=N)N)NC(=O)[C@@H]1CCCN1C(=O)[C@H](CCCNC(=N)N)NC(=O)[C@@H]1CCCN1C(=O)[C@H](CC(C)C)NC(=O)[C@H](CCCNC(=N)N)NC(=O)[C@@H]1CCCN1C(=O)[C@H](CCCNC(=N)N)NC(=O)[C@H](CCCNC(=N)N)NC(=O)[C@@H](NC(=O)[C@H](CCCNC(=N)N)NC(=O)[C@@H](N)CCCNC(=N)N)[C@@H](C)CC)C(C)C)[C@@H](C)CC)C(=O)O [VicBac[1-22]] (H-RRIRRPRLPRPRVPRPRIPPRI-OH)
MIC value after 10 passages subjected to selection (E. coli MDR 1057): > 128 µM
Minimum inhibitory concentration, E. coli strain ΔompF (E. coli BW25113 ΔompF; 0.9% NaCl: +): 8 µM (≈ 22.5 µg/mL)
Minimum inhibitory concentration, E. coli strain ΔompF (E. coli BW25113 ΔompF; 0.9% NaCl: −): 2 µM (≈ 5.62 µg/mL)
Minimum inhibitory concentration, E. coli strain ΔmdtM (E. coli BW25113 ΔmdtM; 0.9% NaCl: +): 2 µM (≈ 5.62 µg/mL)
Minimum inhibitory concentration, E. coli strain ΔmdtM (E. coli BW25113 ΔmdtM; 0.9% NaCl: −): 4 µM (≈ 11.2 µg/mL)
Minimum inhibitory concentration, E. coli strain ΔsbmA (E. coli BW25113 ΔsbmA; 0.9% NaCl: +): 16 µM (≈ 45 µg/mL)
Minimum inhibitory concentration, E. coli strain ΔsbmA (E. coli BW25113 ΔsbmA; 0.9% NaCl: −): 4 µM (≈ 11.2 µg/mL)
Minimum inhibitory concentration, E. coli strain BW25113 (E. coli BW25113): 2 µM (≈ 5.62 µg/mL)
Minimum inhibitory concentration E.coli MDR 1057 14 days with VicBac [1-22] [1]: > 128 µM
Minimum inhibitory concentration E.coli MDR 1057 14 days w/o AMP (E. coli MDR CI 1057; after 14 passages without antimicrobial agents): 1 µM (≈ 2.81 µg/mL)
Minimum inhibitory concentration E.coli MDR 1057 0 days (E. coli MDR CI 1057; before passages): 1 µM (≈ 2.81 µg/mL)
moderate cytotoxic activity against human HEK293T cells [2]: not
MIC, control strain BW25113ΔsbmA expressing sfGFP [3]: 8 µM (≈ 22.5 µg/mL)
MIC, BW25113ΔsbmA with plasmid-borne mutant SbmA (tetrapeptide deletion) [4]: 8 µM
MIC, BW25113ΔsbmA with plasmid-borne wild-type SbmA [5]: 1 µM
